Measurements as given in the NIST ThermoML archive (doi:10.1016/j.fluid.2008.03.004).

Assay: xn = mol fraction of the nth substance listed
Details: 101 kPa, Liquid; for speed of sound: Sing-around technique in a fixed-path interferometer

Cc1ccccc1C [1,2-dimethylbenzene] + COC(C)(C)C
Details | mass density [kg/m3] | speed of sound [m/s]
305.65 K, x2 = 0 | 868.65 | –
305.65 K, x2 = 0.052 | 861.853 | –
305.65 K, x2 = 0.101 | 855.807 | –
305.65 K, x2 = 0.203 | 842.365 | –
305.65 K, x2 = 0.303 | 829.01 | –
305.65 K, x2 = 0.401 | 815.857 | –
305.65 K, x2 = 0.499 | 801.959 | –
305.65 K, x2 = 0.604 | 786.901 | –
305.65 K, x2 = 0.707 | 771.779 | –
305.65 K, x2 = 0.8 | 757.862 | –
305.65 K, x2 = 0.9 | 742.391 | –
305.65 K, x2 = 0.95 | 734.452 | –
308.15 K, x2 = 0 | 866.538 | 1300.7
308.15 K, x2 = 0.052 | 859.718 | 1293.5
308.15 K, x2 = 0.101 | 853.654 | 1278.9
308.15 K, x2 = 0.203 | 840.166 | 1249.1
308.15 K, x2 = 0.303 | 826.764 | 1218.2
308.15 K, x2 = 0.401 | 813.564 | 1188.5
308.15 K, x2 = 0.499 | 799.615 | 1157
308.15 K, x2 = 0.604 | 784.495 | 1124.5
308.15 K, x2 = 0.707 | 769.312 | 1089.9
308.15 K, x2 = 0.8 | 755.336 | 1058
308.15 K, x2 = 0.9 | 739.788 | 1026.9
308.15 K, x2 = 0.95 | 731.817 | 1007.3
310.65 K, x2 = 0 | 864.422 | 1290.6
310.65 K, x2 = 0.052 | 857.577 | 1283.5
310.65 K, x2 = 0.101 | 851.495 | 1268.9
310.65 K, x2 = 0.203 | 837.963 | 1238.9
310.65 K, x2 = 0.303 | 824.515 | 1207.9
310.65 K, x2 = 0.401 | 811.267 | 1178
310.65 K, x2 = 0.499 | 797.264 | 1146.5
310.65 K, x2 = 0.604 | 782.083 | 1113.6
310.65 K, x2 = 0.707 | 766.837 | 1078.8
310.65 K, x2 = 0.8 | 752.799 | 1046.9
310.65 K, x2 = 0.9 | 737.174 | 1015.4
310.65 K, x2 = 0.95 | 729.169 | 996.05
313.15 K, x2 = 0 | 862.302 | 1280.6
313.15 K, x2 = 0.052 | 855.433 | 1273.4
313.15 K, x2 = 0.101 | 849.333 | 1258.9
313.15 K, x2 = 0.203 | 835.755 | 1228.7
313.15 K, x2 = 0.303 | 822.257 | 1197.6
313.15 K, x2 = 0.401 | 808.961 | 1167.5
313.15 K, x2 = 0.499 | 794.906 | 1135.9
313.15 K, x2 = 0.604 | 779.664 | 1102.8
313.15 K, x2 = 0.707 | 764.349 | 1067.7
313.15 K, x2 = 0.8 | 750.25 | 1035.9
313.15 K, x2 = 0.9 | 734.547 | 1003.8
313.15 K, x2 = 0.95 | 726.508 | 984.72
315.65 K, x2 = 0 | 860.179 | 1270.5
315.65 K, x2 = 0.052 | 853.286 | 1263.4
315.65 K, x2 = 0.101 | 847.168 | 1248.9
315.65 K, x2 = 0.203 | 833.542 | 1218.5
315.65 K, x2 = 0.303 | 819.996 | 1187.3
315.65 K, x2 = 0.401 | 806.651 | 1157.1
315.65 K, x2 = 0.499 | 792.544 | 1125.3
315.65 K, x2 = 0.604 | 777.236 | 1092
315.65 K, x2 = 0.707 | 761.858 | 1056.8
315.65 K, x2 = 0.8 | 747.693 | 1024.9
315.65 K, x2 = 0.9 | 731.912 | 992.02
315.65 K, x2 = 0.95 | 723.834 | 973.42
318.15 K, x2 = 0 | 858.054 | 1260.6
318.15 K, x2 = 0.052 | 851.136 | 1253.5
318.15 K, x2 = 0.101 | 845 | 1239
318.15 K, x2 = 0.203 | 831.325 | 1208.4
318.15 K, x2 = 0.303 | 817.731 | 1177.1
318.15 K, x2 = 0.401 | 804.337 | 1146.7
318.15 K, x2 = 0.499 | 790.173 | 1114.9
318.15 K, x2 = 0.604 | 774.802 | 1081.2
318.15 K, x2 = 0.707 | 759.355 | 1045.8
318.15 K, x2 = 0.8 | 745.123 | 1014
318.15 K, x2 = 0.9 | 729.271 | 980.41
318.15 K, x2 = 0.95 | 721.145 | 962.22
320.65 K, x2 = 0 | 855.927 | 1250.7
320.65 K, x2 = 0.052 | 848.981 | 1243.6
320.65 K, x2 = 0.101 | 842.834 | 1229.1
320.65 K, x2 = 0.203 | 829.108 | 1198.3
320.65 K, x2 = 0.303 | 815.461 | 1166.9
320.65 K, x2 = 0.401 | 802.016 | 1136.4
320.65 K, x2 = 0.499 | 787.797 | 1104.4
320.65 K, x2 = 0.604 | 772.358 | 1070.5
320.65 K, x2 = 0.707 | 756.834 | 1034.8
320.65 K, x2 = 0.8 | 742.544 | 1003.2
320.65 K, x2 = 0.9 | 726.621 | 968.31
320.65 K, x2 = 0.95 | 718.446 | 951.04
323.15 K, x2 = 0 | 853.803 | 1240.9
323.15 K, x2 = 0.052 | 846.833 | 1233.9
323.15 K, x2 = 0.101 | 840.678 | 1219.5
323.15 K, x2 = 0.203 | 826.892 | 1188.3
323.15 K, x2 = 0.303 | 813.194 | 1156.9
323.15 K, x2 = 0.401 | 799.699 | 1126.2
323.15 K, x2 = 0.499 | 785.421 | 1094.1
323.15 K, x2 = 0.604 | 769.917 | 1059.9
323.15 K, x2 = 0.707 | 754.356 | 1024.2
323.15 K, x2 = 0.8 | 739.964 | 992.41
323.15 K, x2 = 0.9 | 723.991 | 957.28
323.15 K, x2 = 0.95 | 715.742 | 940.07
